Measured values from PubChem BioAssay (NCI).
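How tested: cells in 96-well plates exposed to compound for 48 hours at five concentrations. TGI denotes the concentration required for complete inhibition of growth.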 Where a SMILES comes first, the peptide text is derived from it. The star is where a group is joined. Boc = CC(C)(C)OC(=O)*

Tests used:
Assay in all cases: NCI-60 cell line screen, 48 h
[1] = system: 786-0 renal
[2] = system: A498 renal
[3] = system: A549 NSCLC
[4] = system: ACHN renal
[5] = system: BT-549 breast
[6] = system: CAKI-1 renal
[7] = system: CCRF-CEM leukemia
[8] = system: COLO 205 colon
[9] = system: DU-145 prostate
[10] = system: EKVX NSCLC
[11] = system: HCC-2998 colon
[12] = system: HCT-116 colon
[13] = system: HCT-15 colon
[14] = system: HL-60(TB) leukemia
[15] = system: HOP-92 NSCLC
[16] = system: HS 578T breast
[17] = system: IGROV1 ovarian
[18] = system: K-562 leukemia
[19] = system: KM12 colon
[20] = system: LOX IMVI melanoma
[21] = system: M14 melanoma
[22] = system: MALME-3M melanoma
[23] = system: MCF7 breast
[24] = system: MDA-MB-231 breast
[25] = system: MDA-MB-435
[26] = system: MDA-N
[27] = system: MOLT-4 leukemia
[28] = system: NCI-H226 lung
[29] = system: NCI-H460 lung
[30] = system: NCI-H522 lung
[31] = system: NCI/ADR-RES ovarian
[32] = system: OVCAR-3 ovarian
[33] = system: OVCAR-4 ovarian
[34] = system: OVCAR-5 ovarian
[35] = system: OVCAR-8 ovarian
[36] = system: PC-3 prostate
[37] = system: RPMI-8226 leukemia
[38] = system: RXF 393 renal
[39] = system: SF-268 CNS
[40] = system: SF-295 CNS
[41] = system: SF-539 CNS
[42] = system: SK-MEL-2 melanoma
[43] = system: SK-MEL-28 melanoma
[44] = system: SK-MEL-5 melanoma
[45] = system: SN12C renal
[46] = system: SNB-19 CNS
[47] = system: SNB-75 CNS
[48] = system: SR leukemia
[49] = system: SW-620 colon
[50] = system: T-47D breast
[51] = system: TK-10 renal
[52] = system: U251 CNS
[53] = system: UACC-257 melanoma
[54] = system: UACC-62 melanoma
[55] = system: UO-31 renal
[56] = system: HOP-62 NSCLC
[57] = system: HT29 colon
[58] = system: NCI-H23 lung
[59] = system: SK-OV-3 ovarian

Measured: TGI

CNN1C(=O)c2c(N)c(C#N)c(-c3ccccc3)c(-c3ccccc3)c2C1=O
not listed: [56] | [57] | [58] | [59]
> 100 µM: all other assays above

Cc1nnc(N)nc1/C=C\c1ccc(N(C)C)cc1
8.91 µM: [14]
> 59.2 µM: [13]
20.1 µM: [20]
17.1 µM: [30]
> 63.3 µM: [6]
23.8 µM: [11]
> 66.9 µM: [54]
not listed: [32] | [41]
> 100 µM: all other assays above

CC(NC(=O)OC(C)(C)C)C(=O)NC(Cc1ccccc1)C(=O)NCC(=O)O (stereo not drawn) (Boc-Ala-Phe-Gly-OH; configuration not given here)
not listed: [33]
> 100 µM: all other assays above
